Data from PMC4901301 (Scientific Reports, 2016).
Converted amounts (≈) assume the structure as drawn. Where two headings read alike, the source gives them in different places.

Tests used:
Mtb ThyX = Mtb ThyX (Mycobacterium tuberculosis, UniProt P9WG57); assay: Mtb ThyX tritium release assay; format: biochemical; conditions: for % of ThyX inhibition at 100 µM: actual measured data; for Ki: read-out: Ki against Mtb ThyX
Mtb gyrase = Mtb gyrase (Mycobacterium tuberculosis, UniProt P9WG45); assay: Mtb gyrase supercoiling assay; format: biochemical
Protocol: Mtb gyrase supercoiling assays were carried out as described previously.

Mtb H37Rv [1] = assay: Resazurin (Alamar Blue) drug susceptibility testing, H37Rv; format: cell-based, Mycobacterium tuberculosis
Mtb TH 12526 = assay: Resazurin (Alamar Blue) drug susceptibility testing, TH 12526; format: cell-based, Mycobacterium tuberculosis
Mtb H37Rv [2] = assay: Broth microdilution susceptibility of Mtb H37Rv; format: cell-based, Mycobacterium tuberculosis; conditions: replicating Mtb H37Rv, read-out: MIC90 (µM) against H37Rv
Mtb = test system: Mtb; design: method as in earlier work; conditions: cited from earlier work
[3] = menadione analogs, 7H9 media with 1% ethanol as a co-solvent, read-out: MIC (H37Rv)

Mtb ThyX, sequence (P9WG57 whole entry): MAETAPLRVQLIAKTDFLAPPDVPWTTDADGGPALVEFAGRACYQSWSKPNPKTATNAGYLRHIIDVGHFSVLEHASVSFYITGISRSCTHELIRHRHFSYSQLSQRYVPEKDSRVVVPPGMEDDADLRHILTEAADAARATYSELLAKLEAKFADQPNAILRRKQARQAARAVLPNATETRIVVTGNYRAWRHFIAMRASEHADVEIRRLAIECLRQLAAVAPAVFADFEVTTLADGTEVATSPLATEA
Mtb gyrase, sequence (P9WG47 whole entry): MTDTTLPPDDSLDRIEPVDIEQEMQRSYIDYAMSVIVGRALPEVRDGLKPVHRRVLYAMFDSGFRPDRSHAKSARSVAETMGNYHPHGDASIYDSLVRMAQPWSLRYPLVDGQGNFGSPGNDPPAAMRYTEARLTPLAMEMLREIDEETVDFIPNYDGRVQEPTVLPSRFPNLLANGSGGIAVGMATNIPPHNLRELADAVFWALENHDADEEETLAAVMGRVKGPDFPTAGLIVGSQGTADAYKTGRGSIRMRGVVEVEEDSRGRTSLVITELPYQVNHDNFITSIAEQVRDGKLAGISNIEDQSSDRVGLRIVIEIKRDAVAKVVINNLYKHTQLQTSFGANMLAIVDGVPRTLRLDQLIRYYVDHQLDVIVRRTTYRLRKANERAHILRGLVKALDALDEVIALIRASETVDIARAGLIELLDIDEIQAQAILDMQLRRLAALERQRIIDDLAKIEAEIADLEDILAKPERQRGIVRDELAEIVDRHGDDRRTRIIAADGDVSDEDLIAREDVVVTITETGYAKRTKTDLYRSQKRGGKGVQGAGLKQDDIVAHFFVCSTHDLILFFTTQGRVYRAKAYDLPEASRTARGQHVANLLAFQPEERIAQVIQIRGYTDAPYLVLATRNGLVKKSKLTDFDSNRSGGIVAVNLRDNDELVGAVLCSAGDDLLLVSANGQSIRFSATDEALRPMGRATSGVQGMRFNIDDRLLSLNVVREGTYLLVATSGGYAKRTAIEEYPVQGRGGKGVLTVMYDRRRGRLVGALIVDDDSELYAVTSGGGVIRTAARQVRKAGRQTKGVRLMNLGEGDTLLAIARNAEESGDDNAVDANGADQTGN
Mtb gyrase, sequence (P9WG45 whole entry): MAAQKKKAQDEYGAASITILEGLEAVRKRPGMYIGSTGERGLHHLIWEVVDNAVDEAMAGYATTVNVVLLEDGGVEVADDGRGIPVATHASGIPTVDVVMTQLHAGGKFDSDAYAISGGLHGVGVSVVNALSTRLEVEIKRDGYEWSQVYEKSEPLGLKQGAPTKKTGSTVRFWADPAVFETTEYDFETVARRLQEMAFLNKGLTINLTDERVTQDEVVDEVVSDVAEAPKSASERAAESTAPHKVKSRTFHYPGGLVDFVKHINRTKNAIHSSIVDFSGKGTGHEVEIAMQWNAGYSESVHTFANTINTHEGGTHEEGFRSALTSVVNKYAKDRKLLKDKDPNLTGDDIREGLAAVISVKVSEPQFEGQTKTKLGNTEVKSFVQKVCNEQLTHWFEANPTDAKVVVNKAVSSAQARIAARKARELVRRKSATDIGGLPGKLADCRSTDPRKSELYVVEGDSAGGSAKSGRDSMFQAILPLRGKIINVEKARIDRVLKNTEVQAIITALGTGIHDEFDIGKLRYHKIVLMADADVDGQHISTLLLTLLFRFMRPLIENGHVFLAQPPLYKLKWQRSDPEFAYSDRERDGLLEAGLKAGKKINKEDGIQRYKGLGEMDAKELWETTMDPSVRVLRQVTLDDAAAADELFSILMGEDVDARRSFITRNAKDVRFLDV

SMILES: Cc1cc(O)c2c(c1)C(=O)C=CC2=O [7-methyljuglone, reference compound]
- Activity against Mtb ThyX (in words) (Mtb ThyX): active
- IC50 (Mtb ThyX): 35 µM
- Activity against Mtb gyrase (in words) (Mtb gyrase): active
- IC50 (Mtb gyrase): 30 µM

SMILES: COc1cc(CC2=C(O)C(=O)c3ccccc3C2=O)ccc1O [Compound 010H]
- MIC (Mtb H37Rv [1]; read-out: MIC): 201.4 µM (≈ 62.5 µg/mL)
- MIC (Mtb TH 12526; TH 12526, read-out: MIC): 201.4 µM (≈ 62.5 µg/mL)
- % of ThyX inhibition at 100 µM (Mtb ThyX): 41%

SMILES: CCOC(=O)C1=C(c2ccc(C)cc2)C(=O)c2ccccc2C1=O [Compound B6, ethyl 3-(4-methylphenyl)-1,4-dioxonaphtalene-2-carboxylate]
- Ki (Mtb ThyX; from dose response curves versus ThyX): 4.5 µM
- MIC90 (Mtb H37Rv [2]; Mycobacterium tuberculosis): 62.5 µM (≈ 20 µg/mL)

SMILES: COC(=O)COc1cc2oc(=O)cc(-c3ccccc3)c2cc1Cl [methyl [(6-chloro-2-oxo-4-phenyl-2H-chromen-7-yl)oxy]acetate]
- Activity against gyrase at 100 uM (Mtb gyrase): no activity

SMILES: O=C1C(O)=C(Cc2ccc(-c3ccc(Cl)cc3)cc2)C(=O)c2ccccc21 [Compound 007B]
- MIC (Mtb H37Rv [1]; H37Rv, read-out: MIC): 20.8 µM (≈ 7.8 µg/mL)
- MIC (Mtb TH 12526; TH 12526, read-out: MIC): 41.7 µM (≈ 15.6 µg/mL)
- % of ThyX inhibition at 100 µM (Mtb ThyX): 21%

SMILES: O=C1C(O)=C(Cc2ccc(Cl)cc2)C(=O)c2ccccc21 [Compound 010A]
- MIC (Mtb H37Rv [1]; read-out: MIC): 52.3 µM (≈ 15.6 µg/mL)
- MIC (Mtb TH 12526; TH 12526, read-out: MIC): 52.3 µM (≈ 15.6 µg/mL)
- % of ThyX inhibition at 100 µM (Mtb ThyX): 64%

SMILES: CCS(=O)(=O)N1CCN(C2=C(Cl)C(=O)c3ccccc3C2=O)CC1 [Compound F2]
- MIC90 (Mtb H37Rv [2]): 31.2 µM (≈ 11.5 µg/mL)

SMILES: Cc1cc(O)c2c(c1)C(=O)C=C(c1c(C)cc(O)c3c1C(=O)C=CC3=O)C2=O [Neodiospyrin, reference compound]
- IC50 (Mtb ThyX): 20 µM
- IC50 (Mtb gyrase): 50 µM

SMILES: CCCCC1=C(O)C(=O)c2ccccc2C1=O [Compound 010I]
- MIC (Mtb H37Rv [1]; read-out: MIC): 135.7 µM (≈ 31.2 µg/mL)
- MIC (Mtb TH 12526; TH 12526, read-out: MIC): 67.8 µM (≈ 15.6 µg/mL)
- % of ThyX inhibition at 100 µM (Mtb ThyX): 58%

SMILES: COc1ccc(CC2=CC(=O)c3ccccc3C2=O)cc1 [Compound D5]
- MIC90 (Mtb H37Rv [2]): 62.5 µM (≈ 17.4 µg/mL)

SMILES: CS(=O)(=O)N1CCN(C2=C(Cl)C(=O)c3ccccc3C2=O)CC1 [Compound E1, 2-chloro-3-(4-methanesulfonylpiperazin-1-yl)-1,4-dihydronaphthalene-1,4-dione]
- MIC90 (Mtb H37Rv [2]; Mycobacterium tuberculosis): 62.5 µM (≈ 22.2 µg/mL)

SMILES: CCCc1cc(=O)oc2cc(OCC(=O)OC)c(Cl)cc12 [methyl [(6-chloro-2-oxo-4-propyl-2H-chromen-7-yl)oxy]acetate]
- Activity against gyrase at 100 uM (Mtb gyrase): no activity

SMILES: CCCCc1cc(=O)oc2cc(OCC(=O)OCc3ccccc3)c(Cl)cc12 [benzyl [(4-butyl-6-chloro-2-oxo-2H-chromen-7-yl)oxy]acetate]
- Activity against gyrase at 100 uM (Mtb gyrase): no activity

SMILES: Cc1cc2c(c(O)c1-c1c(C)cc(O)c3c1C(=O)C=CC3=O)C(=O)C=CC2=O [Isodiospyrin, reference compound]
- IC50 (Mtb gyrase): 100 µM

SMILES: O=C1C(O)=C(Cc2cc(F)cc(F)c2)C(=O)c2ccccc21 [Compound 010B]
- MIC (Mtb H37Rv [1]; read-out: MIC): 104.1 µM (≈ 31.3 µg/mL)
- MIC (Mtb TH 12526; TH 12526, read-out: MIC): 104.1 µM (≈ 31.3 µg/mL)
- % of ThyX inhibition at 100 µM (Mtb ThyX): 68%

SMILES: Cc1cc(O)c2c(c1)C(=O)C(c1c(C)cc3c(c1O)C(=O)C=CC3=O)=CC2=O [Diospyrin, reference compound]
- IC50 ThyX (Mtb ThyX): No inhibition
- Activity against Mtb gyrase (in words) (Mtb gyrase): inhibits
- IC50 (Mtb gyrase): 15 µM

SMILES: CCOCCOC(=O)COc1ccc2c(-c3ccccc3)cc(=O)oc2c1 [2-ethoxyethyl [(2-oxo-4-phenyl-2H-chromen-7-yl)oxy]acetate]
- Activity against gyrase at 100 uM (Mtb gyrase): no activity

SMILES: CCc1cc2c(=O)c(-c3ccc(OC)cc3)coc2cc1OCC(=O)OC [methyl {[6-ethyl-3-(4-methoxyphenyl)-4-oxo-4H-chromen-7-yl]oxy}acetate]
- Activity against gyrase at 100 uM (Mtb gyrase): no activity

SMILES: O=C1C(Cl)=C(N2CCN(C(=O)c3ccc(F)cc3)CC2)C(=O)c2ccccc21 [Compound F1]
- MIC90 (Mtb H37Rv [2]): 31.2 µM (≈ 12.4 µg/mL)

SMILES: O=C1C(O)=C(Cc2ccc(Oc3ccccc3)cc2)C(=O)c2ccccc21 [Compound 007G]
- MIC (Mtb H37Rv [1]; read-out: MIC): 175.5 µM (≈ 62.5 µg/mL)
- MIC (Mtb TH 12526; TH 12526, read-out: MIC): 87.8 µM (≈ 31.3 µg/mL)
- % of ThyX inhibition at 100 µM (Mtb ThyX): 89%

SMILES: COc1ccc(CC2=C(O)C(=O)c3ccccc3C2=O)cc1 [Compound C8-C1]
- Activity against Mtb ThyX (in words) (Mtb ThyX): inhibit
- IC50 (Mtb ThyX): 4.5 µM
- Activity against Mtb gyrase (in words) (Mtb gyrase): inactive
- IC50 gyrase (Mtb gyrase): No inhibition

SMILES: O=C1C(O)=C(Cc2ccc(C(F)(F)F)cc2)C(=O)c2ccccc21 [Compound 007F]
- MIC (Mtb H37Rv [1]; read-out: MIC): 94.1 µM (≈ 31.3 µg/mL)
- MIC (Mtb TH 12526; TH 12526, read-out: MIC): 47.0 µM (≈ 15.6 µg/mL)
- % of ThyX inhibition at 100 µM (Mtb ThyX): 74%

SMILES: CC1=CC(=O)c2ccccc2C1=O [Menadione, reference compound]
- MIC (Mtb H37Rv [1]; Mycobacterium tuberculosis, H37RV, menadione analogs, 7H9 media with 1% ethanol as a co-solvent, read-out: MIC (H37Rv)): 98.8 µM (≈ 17 µg/mL)
- Activity against Mtb gyrase (in words) (Mtb gyrase): inactive

SMILES: CC(=O)N(C1=C(Cl)C(=O)c2ccccc2C1=O)c1cccc(F)c1 [Compound E10]
- MIC90 (Mtb H37Rv [2]): 31.2 µM (≈ 10.7 µg/mL)

SMILES: CC1(S(=O)(=O)[O-])CC(=O)c2ccccc2C1=O.[Na+] (stereo not shown) [Menadione Bisulfate, reference compound]
- MIC (Mtb H37Rv [1]; [3]): 311.3 µM

SMILES: O=C1C(O)=C(Cc2ccc(F)c(C(F)(F)F)c2)C(=O)c2ccccc21 [Compound 010E]
- MIC (Mtb H37Rv [1]; read-out: MIC): 22.3 µM (≈ 7.81 µg/mL)
- MIC (Mtb TH 12526; TH 12526, read-out: MIC): 22.3 µM (≈ 7.81 µg/mL)
- % of ThyX inhibition at 100 µM (Mtb ThyX): 32%

SMILES: C=CCOC(=O)COc1cc2oc(=O)c(Cc3ccccc3)c(C)c2cc1Cl [prop-2-en-1-yl 2-[(3-benzyl-6-chloro-4-methyl-2-oxo-2H-chromen-7-yl)oxy]acetate]
- Activity against gyrase at 100 uM (Mtb gyrase): no activity

SMILES: NNC(=O)c1ccncc1 [INH, isoniazid, reference compound]
- MIC (Mtb H37Rv [1]; Mycobacterium tuberculosis, H37RV, read-out: MIC): < 0.91 µM
- MIC (Mtb TH 12526; Mycobacterium tuberculosis, TH12526, TH 12526, read-out: MIC): < 0.91 µM
- MIC (Mtb): 0.25 µg/mL (≈ 1.82 µM)

SMILES: O=C1C(O)=C(Cc2ccc(OC(F)(F)F)cc2)C(=O)c2ccccc21 [Compound 007C]
- MIC (Mtb H37Rv [1]; H37Rv, read-out: MIC): 89.7 µM (≈ 31.2 µg/mL)
- MIC (Mtb TH 12526; TH 12526, read-out: MIC): 44.9 µM (≈ 15.6 µg/mL)
- % of ThyX inhibition at 100 µM (Mtb ThyX): 78%

SMILES: COC1=C(OC)C(=O)C(CCCCCCCCCCO)=C(C)C1=O [Idebenone, idebenone, reference compound]
- Ki (Mtb ThyX; uncompetitive with respect to dUMP, converted from measured IC50): 3.3 µM
- Mode of inhibition of Mtb ThyX (Mtb ThyX; with respect to dUMP): uncompetitive
- MIC90 (Mtb H37Rv [2]; Mycobacterium tuberculosis): 125 µM (≈ 42.3 µg/mL)
- MIC90 (Mtb H37Rv [2]): 125 µM (≈ 42.3 µg/mL)

SMILES: CCOC(=O)COc1cc2oc(=O)cc(CC)c2cc1Cl [ethyl [(6-chloro-4-ethyl-2-oxo-2H-chromen-7-yl)oxy]acetate]
- Activity against gyrase at 100 uM (Mtb gyrase): no activity

SMILES: CO[C@H]1/C=C/O[C@@]2(C)Oc3c(C)c(O)c4c(O)c(c(/C=N/N5CCN(C)CC5)c(O)c4c3C2=O)NC(=O)/C(C)=C\C=C\[C@H](C)[C@H](O)[C@@H](C)[C@@H](O)[C@@H](C)[C@H](OC(C)=O)[C@@H]1C [RMP, rifampicin, reference compound]
- MIC (Mtb TH 12526; Mycobacterium tuberculosis, TH12526): < 0.3 µM
- MIC (Mtb): 0.5 µg/mL (≈ 0.608 µM)

SMILES: O=C1C=C(Cc2ccc(F)cc2)C(=O)c2ccccc21 [Compound D4]
- MIC90 (Mtb H37Rv [2]): 31.2 µM (≈ 8.31 µg/mL)

SMILES: O=C1C(Br)=CC(=O)c2c(O)cccc21 [Compound 2E04]
- Activity against Mtb ThyX (in words) (Mtb ThyX): inhibit
- IC50 (Mtb ThyX): 5 µM
- Activity against Mtb gyrase (in words) (Mtb gyrase): inactive
- IC50 (Mtb gyrase): > 50 µM

SMILES: COc1ccc(CC2=C(O)C(=O)c3ccccc3C2=O)cc1OC [Compound 010K]
- MIC (Mtb H37Rv [1]; read-out: MIC): 192.7 µM (≈ 62.5 µg/mL)
- MIC (Mtb TH 12526; TH 12526, read-out: MIC): 48.2 µM (≈ 15.6 µg/mL)
- % of ThyX inhibition at 100 µM (Mtb ThyX): 42%

SMILES: CC(C)=CCC/C(C)=C/CC/C(C)=C/CC/C(C)=C/CC/C(C)=C/CC/C(C)=C/CC/C(C)=C/CC/C(C)=C/CC/C(C)=C/CC1=C(C)C(=O)c2ccccc2C1=O [MK-9, reference compound]
- MIC (Mtb H37Rv [1]; [3]): > 6.4 µM

SMILES: O=C1C(O)=C(Cc2ccc(F)c(Cl)c2)C(=O)c2ccccc21 [Compound 010F]
- MIC (Mtb H37Rv [1]; read-out: MIC): 197.3 µM (≈ 62.5 µg/mL)
- MIC (Mtb TH 12526; TH 12526, read-out: MIC): 98.7 µM (≈ 31.3 µg/mL)
- % of ThyX inhibition at 100 µM (Mtb ThyX): 73%

SMILES: O=C1C(O)=C(Cc2ccco2)C(=O)c2ccccc21 [Compound 010C]
- MIC (Mtb H37Rv [1]; read-out: MIC): 176.5 µM (≈ 44.9 µg/mL)
- MIC (Mtb TH 12526; TH 12526, read-out: MIC): 176.5 µM (≈ 44.9 µg/mL)
- % of ThyX inhibition at 100 µM (Mtb ThyX): 60%

SMILES: O=C1C(O)=C(Cc2cccs2)C(=O)c2ccccc21 [Compound 010D]
- MIC (Mtb H37Rv [1]; read-out: MIC): 231.2 µM (≈ 62.5 µg/mL)
- MIC (Mtb TH 12526; TH 12526, read-out: MIC): 231.2 µM (≈ 62.5 µg/mL)
- % of ThyX inhibition at 100 µM (Mtb ThyX): 42%

SMILES: CC(C)Oc1ccc(CC2=C(O)C(=O)c3ccccc3C2=O)cc1 [Compound 007D]
- MIC (Mtb H37Rv [1]; read-out: MIC): 96.9 µM (≈ 31.2 µg/mL)
- MIC (Mtb TH 12526; TH 12526, read-out: MIC): 96.9 µM (≈ 31.2 µg/mL)
- % of ThyX inhibition at 100 µM (Mtb ThyX): 71%
